This is an account of results in patent US9133126B2, “Fluoroalkyl dibenzoazepinone compounds” (BRISTOL-MYERS SQUIBB COMPANY, priority 2012, dated 2015).

Each structure is given as a SMILES string.

A short description of this series: in vitro. Particulars: human, liver microsomes, pH 7.4. On the technique in general: Liver microsomes are a subcellular fraction often used to study metabolism.

For orientation: half-life means the time in which the quantity being followed falls by half. As to `CCC[C@H](C(N)=O)[C@@H](CCC(F)(F)F)C(=O)N[C@@H]1C(=O)Nc2ccccc2-c2ccccc21` [Example 2, (2R,3S)-N-((7S)-6-Oxo-6,7-dihydro-5H-dibenzo[b,d]azepin-7-yl)-3-propyl-2-(3,3,3-trifluoropropyl)succinamide], the half-life at 0.5 μM was at least 40 min.

The compound `NC(=O)[C@@H](CC1CC1)[C@@H](CCC(F)(F)F)C(=O)N[C@@H]1C(=O)Nc2ccccc2-c2ccccc21` [Example 3, (2R,3S)-3-(Cyclopropylmethyl)-N-((7S)-6-oxo-6,7-dihydro-5H-dibenzo[b,d]azepin-7-yl)-2-(3,3,3-trifluoropropyl)succinamide] gave a half-life at 0.5 μM of at least 40 min. Then `CCC[C@@H](C(=O)N[C@@H]1C(=O)Nc2ccccc2-c2ccccc21)[C@H](CCC(F)(F)F)C(N)=O` [Example 4, (2R,3S)-N-((7S)-6-Oxo-6,7-dihydro-5H-dibenzo[b,d]azepin-7-yl)-2-propyl-3-(3,3,3-trifluoropropyl)succinamide], with at least 40 min. Then `NC(=O)[C@@H](CC1CC1)[C@@H](CCC(F)(F)F)C(=O)N[C@@H]1C(=O)Nc2c(F)cccc2-c2ccccc21` [Example 5, (2R,3S)-3-(Cyclopropylmethyl)-N-((7S)-4-fluoro-6-oxo-6,7-dihydro-5H-dibenzo[b,d]azepin-7-yl)-2-(3,3,3-trifluoropropyl)succinamide], with at least 40 min; and `NC(=O)[C@@H](c1ccccc1)[C@@H](CCC(F)(F)F)C(=O)N[C@@H]1C(=O)Nc2ccccc2-c2ccccc21` [Example 6, (2R,3R)-N-((7S)-6-Oxo-6,7-dihydro-5H-dibenzo[b,d]azepin-7-yl)-3-phenyl-2-(3,3,3-trifluoropropyl)succinamide], with at least 40 min; and `NC(=O)[C@@H](CC1CC(F)(F)C1)[C@@H](CCC(F)(F)F)C(=O)N[C@@H]1C(=O)Nc2ccccc2-c2ccccc21` [Example 7, (2R,3S)-3-((3,3-difluorocyclobutyl)methyl)-N-((7S)-6-oxo-6,7-dihydro-5H-dibenzo[b,d]azepin-7-yl)-2-(3,3,3-trifluoropropyl)succinamide], with at least 40 min.

The compound `NC(=O)[C@@H](CCC(F)(F)F)[C@@H](CCC(F)(F)F)C(=O)N[C@@H]1C(=O)Nc2c(Cl)cccc2-c2ccccc21` [Example 8, (2R,3S)-N-(4-Chloro-6-oxo-6,7-dihydro-5H-dibenzo[b,d]azepin-7-yl)-2,3-bis(3,3,3-trifluoropropyl)succinamide] showed a half-life at 0.5 μM of at least 40 min. Then `CCC[C@H](C(N)=O)[C@@H](CCC(F)(F)F)C(=O)N[C@@H]1C(=O)Nc2c(F)cccc2-c2ccccc21` [Example 9, (2R,3S)-N-(4-Fluoro-6-oxo-6,7-dihydro-5H-dibenzo[b,d]azepin-7-yl)-3-propyl-2-(3,3,3-trifluoropropyl)succinamide], with at least 40 min.

`Cc1cccc2c1NC(=O)[C@@H](NC(=O)[C@H](CCC(F)(F)F)[C@H](CCC(F)(F)F)C(N)=O)c1cc(F)ccc1-2` [Example 10, (2R,3S)-N-((7S)-9-Fluoro-4-methyl-6-oxo-6,7-dihydro-5H-dibenzo[b,d]azepin-7-yl)-2,3-bis(3,3,3-trifluoropropyl)succinamide] showed a half-life at 0.5 μM of at least 40 min.

For `Cc1cccc2c1NC(=O)[C@@H](NC(=O)[C@H](CCC(F)(F)F)[C@H](CC1CC1)C(N)=O)c1cc(F)ccc1-2` [Example 11, (2R,3S)-3-(Cyclopropylmethyl)-N-((7S)-9-fluoro-4-methyl-6-oxo-6,7-dihydro-5H-dibenzo[b,d]azepin-7-yl)-2-(3,3,3-trifluoropropyl)succinamide], the half-life at 0.5 μM was at least 40 min.
